{"source": "patent US7166761B2", "about": "“Method of screening PTPζ activity promoter or inhibitor” (priority 2000, dated 2007)", "molecules": {"B1": {"name": "pleiotrophin: a heparin-binding secretory protein of 18 kD that binds to extracellular regions of PTPζ (protein, UniProt P21246 33-168, looked up)", "Pleiotrophin": "GKKEKPEKKVKKSDCGEWQWSVCVPTSGDCGLGTREGTRTGAECKQTMKTQRCKIPCNWKKQFGAECKYQFQAWGECDLNTALKTRTGSLKRALHNAECQKTVTISKPCGKLTKPKPQAESKKKKKEGKKQEKMLD"}}, "key": {"[1]": {"test_system": "mice", "experiment": "Effects of psychostimulant drugs on locomotor activity", "type": "in vivo, mouse", "protocol": "The effects of psychostimulant drugs on locomotor activity were measured in a clear acrylic chamber (40×40×40 cm) by measuring animal movements with an electromagnetic activity monitoring system (sensor unit 0603, scanner 1099, Panlab). Before drug administration, the animals were acclimated to the measurement circumstance for at least 90 minutes. The animals were then administered with a stimulant drug, methamphetamine (METH) (1 mg/kg, s.c.), GBR12909 (2 mg/kg, i.p.), apomorphine (1 mg/kg, s.c.), or p-chloro-amphetamine (2 mg/kg, i.p.), and saline as administered to a control, and locomotor activity was monitored for the next 60 minutes."}, "[2]": {"test_system": "striatal synaptosomes", "details": "[3H] DA 1 to 10 nM, 30 degree C; for Km: read-out: [3H] DA uptake Km, mean±SEM of three", "protocol": "Dopamine (DA) uptake was measured as follows. Striatal synaptosome tissue pools (3 animals/pool) were homogenized in 100 volume (v/w) of 0.32 M sucrose in a teflonglass homogenizer and centrifuged at 12,000 rpm for 10 minutes. The crude synaptosomal pellet was resuspended in 0.32 M sucrose at a concentration of 30 mg/ml (original wet weight) and divided into 30 μl aliquots. Each aliquot was added with 270 μl of Krebs-Ringer phosphate buffer with increasing concentrations of [^3H] DA (final 1–10 nM, […], Amersham Pharmacia Biotech UK Ltd.). After incubating the resultant solution for 3 minutes at 30° C., uptake was quickly terminated by filtration through Whatman GF/C glass filters. The filters were rinsed three times with 2.5 ml ice-cold 0.32 M sucrose and measured by using a liquid scintillation counter at an efficiency of 50%. Blank values were measured in the presence of 10 μM GBR12909.\n[^3H] DA was mixed with striatal synaptosomes and [^3H] DA uptake into tissues was measured (the above-mentioned method A-6-1). The homogenate of the striatal synaptosomes was incubated for 2 minutes at 30° C. in the presence of [^3H] DA (1 to 10 nM)."}, "[3]": {"test_system": "nucleus accumbens (NAC)", "experiment": "In vivo microdialysis of nucleus accumbens: METH-induced DA release and locomotion", "parameters": "species or system mouse", "protocol": "Mice were anaesthetized with sodium pentobarbital (80 mg/kg i.p.) and placed in a stereotaxic apparatus. A hole was drilled through the skull and an intracerebral guide cannula (CMA 11, CMA/Microdialysis AB) was inserted into the nucleus accumbens (NAC) and fixed with dental cement. The stereotaxic coordinates for implantation of the guide cannula in both wild-type and PTPζ-deficient mice were: anterior, +1.1 mm, ventral, +3.6 mm, lateral, +1.0 mm to the surface of bregma. 24 hours after the surgery, mice were chained to a counterbalance lever arm attached to a locomotor activity chamber (30×30 cm) with an infrared monitoring apparatus (SCANET LC-10, Toyo Sangyo Co., Ltd.). Dialysis probes (membrane length 1 mm; external diameter 0.24 mm; cuprophane CUP 11, CMA/Microdialysis AB) were inserted through the guide cannula and perfusion was performed with artificial cerebrospinal fluid (ACSF), pH 7.4, (in mM; 145.ONaCl, 2.7 KCl, 1.2 CaCl2, 1.0 MgCl2, and 2.0 NaH2PO4) at a flow rate of 2 μl/min. Perfusates were collected from freely moving animals every 20 minutes in a tube containing 20 μl of 0.4 M HClO4 (CMA 170). Samples were collected and assayed using HPLC-ECD as described above except for the following modifications: the column was MCM C-18 (4.6×150 mm) and the buffer contained 75 mM NaH2PO4, 1.7 mM 1-octanesulfonic acid sodium salt, 0.1 mM triethylamine, 25 μM EDTA·2Na and 10% acetonitrile, at flow rate of 0.55 ml/min at 30° C. The electrode was set at +320 mV. METH administration (1 mg/kg s.c.) or local infusion of high K^+ solution (in mM: 47.7 NaCl, 100.0 KCl, 1.2 CaCl2, 1.0 MgCl2, and 2.0 NaH2PO4, pH 7.4) through the microdialysis probe was performed after the state became steady."}, "[4]": {"test_system": "mouse gastric epithelium", "experiment": "Gastric ulcer formation caused by oral pleiotrophin", "type": "in vivo", "details": "48 hours", "protocol": "The role of PTPζ in gastric ulcer formation caused by pleiotrophin was examined as follows. After a mouse (female) of 4 weeks old was starved for 24 hours (fed water ad libitum), pleiotrophin (Peptide Institute, Inc.) was orally administered to the mouse with a sound. 48 hours later, gastric specimens were prepared and the surface of inside wall of stomach was observed by a stereomicroscope, and then pathologic specimens were prepared by hematoxylen eosin staining and analyzed."}}, "note": "Where two headings read alike, the source gives them in different places.", "data": [{"molecule": "CN1CCc2cccc3c2[C@H]1Cc1ccc(O)c(O)c1-3", "note": "[apomorphine]", "values": [{"measurement": "locomotor activity, responsiveness of PTPζ-deficient mice", "setting": "[1]; 2 mg/kg, s.c., total counts during 60 minutes after administration", "result": "normal"}]}, {"molecule": "NCCc1ccc(O)c(O)c1", "note": "[[^3H] DA, dopamine]", "values": [{"measurement": "[3H] DA uptake Vmax", "setting": "[2]; PTPζ+/+ mice", "result": "45.74 ± 2.77", "unit": "pmol/3 min/mg"}, {"measurement": "[3H] DA uptake Vmax", "setting": "[2]; PTPζ−/− mice", "result": "58.70 ± 1.03", "unit": "pmol/3 min/mg"}, {"measurement": "Km", "setting": "[2]; PTPζ+/+ mice", "result": "0.109 ± 0.00245", "unit": "µM"}, {"measurement": "Km", "setting": "[2]; PTPζ−/− mice", "result": "0.147 ± 0.0113", "unit": "µM"}]}, {"molecule": "CN[C@@H](C)Cc1ccccc1", "note": "[methamphetamine]", "values": [{"measurement": "locomotor response, PTPζ−/− compared to wild-type mice", "setting": "[1]; 1 mg/kg, s.c., electromagnetic sensors, n=9 per genotype", "result": "significantly attenuated locomotor response"}, {"measurement": "DA release in NAC, PTPζ-deficient compared to wild-type mice", "setting": "[3]; PTPζ−/− mice (n=6), 1 mg/kg, s.c., microdialysis", "result": "markedly diminished DA release"}, {"measurement": "METH-enhanced locomotion, PTPζ−/− compared to wild-type mice", "setting": "[3]; freely moving animals during microdialysis, infrared monitoring apparatus", "result": "statistically attenuated"}, {"measurement": "extracellular DA in nucleus accumbens", "setting": "[3]; wild-type mice (n=7), 1 mg/kg, s.c., microdialysis", "result": "definitely increased"}]}, {"molecule": "CC(N)Cc1ccc(Cl)cc1", "note": "(centres unmarked) [p-chloro-amphetamine]", "values": [{"measurement": "locomotor activity, sensitivity of PTPζ-deficient mice", "setting": "[1]; 2 mg/kg, i.p., total counts during 60 minutes after administration, 5-HT liberator", "result": "hyposensitive"}]}, {"molecule": "B1", "values": [{"measurement": "hematoxylen eosin staining of gastric specimens", "setting": "[4]; PTPζ-deficient mice", "result": "totally normal"}, {"measurement": "epithelial damage on gastric epithelium under a stereomicroscope", "setting": "[4]; PTPζ−/− mice", "result": "no damage was observed"}, {"measurement": "epithelial damage on gastric epithelium under a stereomicroscope", "setting": "[4]; wild-type mice", "result": "Profuse bleeding"}, {"measurement": "hematoxylen eosin staining of gastric specimens", "setting": "[4]; wild-type mice", "result": "obvious damage"}]}]}
